Patent US20250346597A1, “CONDENSED HETEROCYCLIC COMPOUNDS AS INHIBITOR OF DIACYLGLYCEROL KINASES” (BEONE MEDICINES I GMBH, priority 2023, published 2025)

What was measured:
DGKα = DGKα (Homo sapiens (Human), UniProt P23743); assay: Biochemical DGK IC50 assay (ADP-Glo, lipid micelle substrate), DGKα; details: full length DGKα […], ATP 140 μM, DAG 80 μM; further: full length DGKα 7.5 nM
Procedure, shortened: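 Full-length human DGKα assayed by ADP-Glo with DAG/PS lipid micelle substrate at room temperature in 50 mM HEPES, 10 mM MgCl2, 0.01% BSA, 0.1 mM Na3VO4, 0.005% Tween-20, 0.01 mM CaCl2.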

DGKζ = DGKζ (Homo sapiens (Human), UniProt Q13574); assay: Biochemical DGK IC50 assay (ADP-Glo, lipid micelle substrate), DGKζ; details: full length DGKζ 0.5 nM, ATP 140 μM, DAG 80 μM
DGKζ, sequence (Q13574 other isoform, or with tags, fused parts or gaps): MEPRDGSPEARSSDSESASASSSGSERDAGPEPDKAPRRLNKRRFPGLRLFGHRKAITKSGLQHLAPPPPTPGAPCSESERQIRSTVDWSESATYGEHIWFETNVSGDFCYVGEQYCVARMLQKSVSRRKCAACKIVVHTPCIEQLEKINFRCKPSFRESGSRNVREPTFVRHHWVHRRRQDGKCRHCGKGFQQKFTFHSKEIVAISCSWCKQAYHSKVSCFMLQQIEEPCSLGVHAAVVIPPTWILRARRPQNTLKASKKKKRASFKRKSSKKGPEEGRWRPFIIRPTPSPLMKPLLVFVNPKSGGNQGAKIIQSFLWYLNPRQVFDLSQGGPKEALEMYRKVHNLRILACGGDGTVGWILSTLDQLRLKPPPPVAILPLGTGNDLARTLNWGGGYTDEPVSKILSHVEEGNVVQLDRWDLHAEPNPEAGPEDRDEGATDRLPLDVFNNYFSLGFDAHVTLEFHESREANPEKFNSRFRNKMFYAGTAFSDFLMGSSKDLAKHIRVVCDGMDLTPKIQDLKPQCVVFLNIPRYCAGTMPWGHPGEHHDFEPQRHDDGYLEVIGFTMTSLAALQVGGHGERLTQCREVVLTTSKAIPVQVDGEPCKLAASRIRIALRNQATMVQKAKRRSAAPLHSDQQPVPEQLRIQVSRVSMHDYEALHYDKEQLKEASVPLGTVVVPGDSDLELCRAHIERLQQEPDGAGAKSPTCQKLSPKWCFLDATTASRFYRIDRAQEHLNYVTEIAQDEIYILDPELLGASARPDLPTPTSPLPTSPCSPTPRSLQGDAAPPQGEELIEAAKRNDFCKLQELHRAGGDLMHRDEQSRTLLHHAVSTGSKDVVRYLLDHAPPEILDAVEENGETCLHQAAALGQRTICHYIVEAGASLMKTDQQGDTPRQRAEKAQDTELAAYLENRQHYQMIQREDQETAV
Procedure, shortened: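 Full-length human His-TEV-tagged DGKζ, expressed in Sf9 cells and purified, was run at room temperature on DAG/PS lipid micelles in 50 mM HEPES, 10 mM MgCl2, 0.01 mM CaCl2 buffer. After 1 h reaction, ADP formed was detected by ADP-Glo luminescence. IC50s came from inhibition across increasing compound concentrations.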

DGKα, sequence (P23743 whole entry): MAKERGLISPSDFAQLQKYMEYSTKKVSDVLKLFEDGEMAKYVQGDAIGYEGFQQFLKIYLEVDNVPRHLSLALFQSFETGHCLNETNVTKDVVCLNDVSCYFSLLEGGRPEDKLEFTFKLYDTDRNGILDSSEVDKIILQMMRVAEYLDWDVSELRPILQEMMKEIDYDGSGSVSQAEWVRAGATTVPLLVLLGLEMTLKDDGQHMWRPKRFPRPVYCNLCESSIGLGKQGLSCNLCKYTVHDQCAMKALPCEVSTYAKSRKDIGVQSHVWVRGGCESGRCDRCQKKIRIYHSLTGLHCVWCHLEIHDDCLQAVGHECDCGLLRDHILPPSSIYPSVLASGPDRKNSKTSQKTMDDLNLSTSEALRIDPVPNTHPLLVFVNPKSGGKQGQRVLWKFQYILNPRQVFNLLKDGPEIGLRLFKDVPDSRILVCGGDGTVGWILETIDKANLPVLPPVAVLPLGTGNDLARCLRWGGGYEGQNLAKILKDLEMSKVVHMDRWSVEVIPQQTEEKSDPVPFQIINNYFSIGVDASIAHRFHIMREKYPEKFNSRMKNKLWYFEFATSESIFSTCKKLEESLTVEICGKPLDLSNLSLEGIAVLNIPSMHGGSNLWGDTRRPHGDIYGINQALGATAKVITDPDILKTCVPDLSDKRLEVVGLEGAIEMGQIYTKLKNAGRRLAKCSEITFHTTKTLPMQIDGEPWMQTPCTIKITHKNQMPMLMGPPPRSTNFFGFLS

| Compound | IC50 (DGKα) [µM] | IC50 (DGKζ) [µM] |
| --- | --- | --- |
| CC[C@H]1CN(C(C)c2ccc(COC3CCOC3)cc2)[C@H](CC)CN1c1cc(=O)n(C)c2cn(CC#N)nc12 (stereo partly drawn) [Compound A17, 2-(7-((2S,5R)-2,5-diethyl-4-(1-(4-(((tetrahydrofuran-3-yl)oxy)methyl)phenyl)ethyl)piperazin-1-yl)-4-methyl-5-oxo-4,5-dihydro-2H-pyrazolo[4,3-b]pyridin-2-yl)acetonitrile] | 0.343 | 0.315 |
| CC[C@H]1CN(C(C)c2ccc(COCCOC)cc2)[C@H](CC)CN1c1cc(=O)n(C)c2cn(CC#N)nc12 (stereo partly drawn) [Compound A18, 2-(7-((2S,5R)-2,5-diethyl-4-(1-(4-((2-methoxyethoxy)methyl)phenyl)ethyl)piperazin-1-yl)-4-methyl-5-oxo-4,5-dihydro-2H-pyrazolo[4,3-b]pyridin-2-yl)acetonitrile] | 0.249 | 0.097 |
| CC[C@H]1CN(C(C)c2ccc(OC)c(F)c2)[C@H](CC)CN1c1cc(=O)n(C)c2cn(CC#N)nc12 (stereo partly drawn) [Compound A20, 2-(7-((2S,5R)-2,5-diethyl-4-(1-(3-fluoro-4-methoxyphenyl)ethyl)piperazin-1-yl)-4-methyl-5-oxo-4,5-dihydro-2H-pyrazolo[4,3-b]pyridin-2-yl)acetonitrile] | 0.378 | 0.312 |
| CC[C@H]1CN(C(C)c2ccc(OC3COC3)cc2F)[C@H](CC)CN1c1cc(=O)n(C)c2cn(CC#N)nc12 (stereo partly drawn) [Compound A22, 2-(7-((2S,5R)-2,5-diethyl-4-(1-(2-fluoro-4-(oxetan-3-yloxy)phenyl)ethyl)piperazin-1-yl)-4-methyl-5-oxo-4,5-dihydro-2H-pyrazolo[4,3-b]pyridin-2-yl)acetonitrile] | 0.833 | 0.465 |
| CC[C@H]1CN(C(C)c2ccc(OC3(C)COC3)cc2)[C@H](CC)CN1c1cc(=O)n(C)c2cn(CC#N)nc12 (stereo partly drawn) [Compound A24, 2-(7-((2S,5R)-2,5-diethyl-4-(1-(4-((3-methyloxetan-3-yl)oxy)phenyl)ethyl)piperazin-1-yl)-4-methyl-5-oxo-4,5-dihydro-2H-pyrazolo[4,3-b]pyridin-2-yl)acetonitrile] | 0.1 | 0.427 |
| CC[C@H]1CN(C(C)c2ccc(CN3CC(F)(F)C3)cc2)[C@H](CC)CN1c1cc(=O)n(C)c2cn(CC#N)nc12 (stereo partly drawn) [Compound A27, 2-(7-((2S,5R)-4-(1-(4-((3,3-difluoroazetidin-1-yl)methyl)phenyl)ethyl)-2,5-diethylpiperazin-1-yl)-4-methyl-5-oxo-4,5-dihydro-2H-pyrazolo[4,3-b]pyridin-2-yl)acetonitrile] | 0.05 | 0.202 |
| CC[C@H]1CN(C(C)c2ccc(CN(C)C)cc2)[C@H](CC)CN1c1cc(=O)n(C)c2cn(CC#N)nc12 (stereo partly drawn) [Compound A28, 2-(7-((2S,5R)-4-(1-(4-((dimethylamino)methyl)phenyl)ethyl)-2,5-diethylpiperazin-1-yl)-4-methyl-5-oxo-4,5-dihydro-2H-pyrazolo[4,3-b]pyridin-2-yl)acetonitrile] | 10 | 4.83 |
| CC[C@H]1CN(C(C)c2ccc(CNC)cc2)[C@H](CC)CN1c1cc(=O)n(C)c2cn(CC#N)nc12 (stereo partly drawn) [Compound A29, 2-(7-((2S,5R)-2,5-diethyl-4-(1-(4-((methylamino)methyl)phenyl)ethyl)piperazin-1-yl)-4-methyl-5-oxo-4,5-dihydro-2H-pyrazolo[4,3-b]pyridin-2-yl)acetonitrile] | 2.6 | 3.93 |
| CC[C@H]1CN(C(C)c2ccc(-c3cn(C)nn3)cc2)[C@H](CC)CN1c1cc(=O)n(C)c2cn(CC#N)nc12 (stereo partly drawn) [Compound A30, 2-(7-((2S,5R)-2,5-diethyl-4-(1-(4-(1-methyl-1H-1,2,3-triazol-4-yl)phenyl)ethyl)piperazin-1-yl)-4-methyl-5-oxo-4,5-dihydro-2H-pyrazolo[4,3-b]pyridin-2-yl)acetonitrile] | 0.666 | 3.69 |
| CC[C@H]1CN(C(C)c2ccc(C(C)C)cc2)[C@H](CC)CN1c1cc(=O)n(C)c2cn(CC#N)nc12 (stereo partly drawn) [Compound A31, 2-(7-((2S,5R)-2,5-diethyl-4-(1-(4-isopropylphenyl)ethyl)piperazin-1-yl)-4-methyl-5-oxo-4,5-dihydro-2H-pyrazolo[4,3-b]pyridin-2-yl)acetonitrile] | 0.615 | 0.213 |
| CC[C@H]1CN(C(C)c2ccc(OC3CC3)cc2)[C@H](CC)CN1c1cc(=O)n(C)c2cn(CC#N)nc12 (stereo partly drawn) [Compound A32, 2-(7-((2S,5R)-4-(1-(4-cyclopropoxyphenyl)ethyl)-2,5-diethylpiperazin-1-yl)-4-methyl-5-oxo-4,5-dihydro-2H-pyrazolo[4,3-b]pyridin-2-yl)acetonitrile] | 0.183 | 0.244 |
| CC[C@H]1CN([C@H](C)c2ccc(OC(C)C)cc2)[C@H](CC)CN1c1cc(=O)n(C)c2cn(CC#N)nc12 [Compound A33a] | 0.049 | 0.045 |
| CC[C@H]1CN([C@@H](C)c2ccc(OC(C)C)cc2)[C@H](CC)CN1c1cc(=O)n(C)c2cn(CC#N)nc12 [Compound A33b] | 0.344 | 0.77 |
| CC[C@H]1CN(C(C)c2ccc(OC3CC3)nc2)[C@H](CC)CN1c1cc(=O)n(C)c2cn(CC#N)nc12 (stereo partly drawn) [Compound A37, 2-(7-((2S,5R)-4-(1-(6-cyclopropoxypyridin-3-yl)ethyl)-2,5-diethylpiperazin-1-yl)-4-methyl-5-oxo-4,5-dihydro-2H-pyrazolo[4,3-b]pyridin-2-yl)acetonitrile] | 0.541 | 0.202 |
| CC[C@H]1CN(C(C)c2ccc(OC)nc2)[C@H](CC)CN1c1cc(=O)n(C)c2cn(CC#N)nc12 (stereo partly drawn) [Compound A41, 2-(7-((2S,5R)-2,5-diethyl-4-(1-(6-methoxypyridin-3-yl)ethyl)piperazin-1-yl)-4-methyl-5-oxo-4,5-dihydro-2H-pyrazolo[4,3-b]pyridin-2-yl)acetonitrile] | 0.347 | 0.151 |
| CC[C@H]1CN(C(C)c2ccc(C(F)(F)F)c(C)n2)[C@H](CC)CN1c1cc(=O)n(C)c2cn(CC#N)nc12 (stereo partly drawn) [Compound A50, 2-(7-((2S,5R)-2,5-diethyl-4-(1-(6-methyl-5-(trifluoromethyl)pyridin-2-yl)ethyl)piperazin-1-yl)-4-methyl-5-oxo-4,5-dihydro-2H-pyrazolo[4,3-b]pyridin-2-yl)acetonitrile] | 0.703 | 0.083 |
| CC[C@H]1CN(C(C)c2ccc(C3CC3)cn2)[C@H](CC)CN1c1cc(=O)n(C)c2cn(CC#N)nc12 (stereo partly drawn) [Compound A52, 2-(7-((2S,5R)-4-(1-(5-cyclopropylpyridin-2-yl)ethyl)-2,5-diethylpiperazin-1-yl)-4-methyl-5-oxo-4,5-dihydro-2H-pyrazolo[4,3-b]pyridin-2-yl)acetonitrile] | 0.118 | 0.099 |
| CC[C@H]1CN(C(C)c2ncc(C)cc2C)[C@H](CC)CN1c1cc(=O)n(C)c2cn(CC#N)nc12 (stereo partly drawn) [Compound A53, 2-(7-((2S,5R)-4-(1-(3,5-dimethylpyridin-2-yl)ethyl)-2,5-diethylpiperazin-1-yl)-4-methyl-5-oxo-4,5-dihydro-2H-pyrazolo[4,3-b]pyridin-2-yl)acetonitrile] | 4.49 | 0.331 |
| CC[C@H]1CN(C(C)c2ccc(OC)c(C)n2)[C@H](CC)CN1c1cc(=O)n(C)c2cn(CC#N)nc12 (stereo partly drawn) [Compound A55, 2-(7-((2S,5R)-2,5-diethyl-4-(1-(5-methoxy-6-methylpyridin-2-yl)ethyl)piperazin-1-yl)-4-methyl-5-oxo-4,5-dihydro-2H-pyrazolo[4,3-b]pyridin-2-yl)acetonitrile] | 2.34 | 0.653 |
| CC[C@H]1CN(C(C)c2ccc(C)c(COC)n2)[C@H](CC)CN1c1cc(=O)n(C)c2cn(CC#N)nc12 (stereo partly drawn) [Compound A56, 2-(7-((2S,5R)-2,5-diethyl-4-(1-(6-(methoxymethyl)-5-methylpyridin-2-yl)ethyl)piperazin-1-yl)-4-methyl-5-oxo-4,5-dihydro-2H-pyrazolo[4,3-b]pyridin-2-yl)acetonitrile] | 2.58 | 0.271 |
| CC[C@H]1CN(C(C)c2ncc(C3CC3)cc2C)[C@H](CC)CN1c1cc(=O)n(C)c2cn(CC#N)nc12 (stereo partly drawn) [Compound A57, 2-(7-((2S,5R)-4-(1-(5-cyclopropyl-3-methylpyridin-2-yl)ethyl)-2,5-diethylpiperazin-1-yl)-4-methyl-5-oxo-4,5-dihydro-2H-pyrazolo[4,3-b]pyridin-2-yl)acetonitrile] | 14.3 | 0.051 |
| CC[C@H]1CN(C(C)c2ccc(C3CC3)c(C)n2)[C@H](CC)CN1c1cc(=O)n(C)c2cn(CC#N)nc12 (stereo partly drawn) [Compound A58, 2-(7-((2S,5R)-4-(1-(5-cyclopropyl-6-methylpyridin-2-yl)ethyl)-2,5-diethylpiperazin-1-yl)-4-methyl-5-oxo-4,5-dihydro-2H-pyrazolo[4,3-b]pyridin-2-yl)acetonitrile] | 0.487 | 0.094 |
| CC[C@H]1CN(C(C)c2ccc(OC)cn2)[C@H](CC)CN1c1cc(=O)n(C)c2cn(CC#N)nc12 (stereo partly drawn) [Compound A59, 2-(7-((2S,5R)-2,5-diethyl-4-(1-(5-methoxypyridin-2-yl)ethyl)piperazin-1-yl)-4methyl-5-oxo-4,5-dihydro-2H-pyrazolo[4,3-b]pyridin-2-yl)acetonitrile] | 0.137 | 0.536 |
| CC[C@H]1CN(C(C)c2ncc(OC)cc2C)[C@H](CC)CN1c1cc(=O)n(C)c2cn(CC#N)nc12 (stereo partly drawn) [Compound A60, 2-(7-((2S,5R)-2,5-diethyl-4-(1-(5-methoxy-3-methylpyridin-2-yl)ethyl)piperazin-1-yl)-4-methyl-5-oxo-4,5-dihydro-2H-pyrazolo[4,3-b]pyridin-2-yl)acetonitrile] | 38 | 0.643 |
